Assay results taken from PMC3829359 (The Journal of Biological Chemistry, 2021).

How the values were obtained:
DC-SIGNR CRD [1] = molecular target: T1, DC-SIGNR CRD (Homo sapiens, UniProt Q9H2X3); assay: 1H-15N HSQC NMR titration, chemical shift perturbation; type: binding; details: pH 6.8, 37 °C, 20 mM HEPES-d18, 20 mM NaCl, 4 mM Ca2+, 0.7 mM protein; intermediate exchange, severe line broadening, KD could not be estimated
T1 sequence (Q9H2X3 262-399): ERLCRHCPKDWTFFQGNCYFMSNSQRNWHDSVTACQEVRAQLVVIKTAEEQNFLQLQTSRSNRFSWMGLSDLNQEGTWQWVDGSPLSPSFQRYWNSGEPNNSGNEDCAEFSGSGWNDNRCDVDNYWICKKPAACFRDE

DC-SIGNR CRD [2] = molecular target: T1, DC-SIGNR CRD; assay: 1H-15N HSQC NMR titration, chemical shift perturbation, […] fit; type: binding; details: pH 6.8, 37 °C, 20 mM HEPES-d18, 20 mM NaCl, 4 mM Ca2+, 0.7 mM protein

Compound | 1H-15N HSQC NMR titration, chemical shift perturbation (DC-SIGNR CRD [1]) | Kd (DC-SIGNR CRD [2]) [µM]
CC(=O)N[C@H]1C(O)O[C@H](CO)[C@@H](O[C@@H]2O[C@H](CO[C@H]3O[C@H](CO[C@H]4O[C@H](CO)[C@@H](O)[C@H](O)[C@@H]4O[C@H]4O[C@H](CO)[C@@H](O)[C@H](O)[C@@H]4O)[C@@H](O)[C@H](O[C@H]4O[C@H](CO)[C@@H](O)[C@H](O)[C@@H]4O[C@H]4O[C@H](CO)[C@@H](O)[C@H](O)[C@@H]4O)[C@@H]3O)[C@@H](O)[C@H](O[C@H]3O[C@H](CO)[C@@H](O)[C@H](O)[C@@H]3O[C@H]3O[C@H](CO)[C@@H](O)[C@H](O)[C@@H]3O[C@H]3O[C@H](CO)[C@@H](O)[C@H](O)[C@@H]3O)[C@@H]2O)[C@@H]1O (stereo partly drawn) [Man9GlcNAc] | binding of Man9GlcNAc caused substantial broadening and disappearance of a number of CRD peaks | 
OC[C@H]1O[C@H](OC[C@H]2OC(O)[C@@H](O)[C@@H](O[C@H]3O[C@H](CO)[C@@H](O)[C@H](O)[C@@H]3O)[C@@H]2O)[C@@H](O)[C@@H](O)[C@@H]1O (stereo partly drawn) [Man3] |  | 2040 ± 540
OC[C@H]1O[C@H](OC[C@H]2O[C@H](OC[C@H]3OC(O)[C@@H](O)[C@@H](O[C@H]4O[C@H](CO)[C@@H](O)[C@H](O)[C@@H]4O)[C@@H]3O)[C@@H](O)[C@@H](O[C@H]3O[C@H](CO)[C@@H](O)[C@H](O)[C@@H]3O)[C@@H]2O)[C@@H](O)[C@@H](O)[C@@H]1O (stereo partly drawn) [Man5] |  | 2200 ± 430
